Experimental data from ChEMBL document CHEMBL1201862, “PubChem BioAssay data set” (2004).
Active and inactive are the calls of the source.

How the values were obtained:
[1] = target: T1, Short transient receptor potential channel 4 (Mus musculus, UniProt Q9QUQ5); test: block of DAMGO-driven TRPC4 calcium entry – cell-based, HEK293 TRPC4/mu-opioid, Fluo-4 calcium, dose response (AID 434942); type: functional;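 note: potency of inhibitors blocking the TRPC4 calcium response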
T1 sequence (Q9QUQ5 whole entry): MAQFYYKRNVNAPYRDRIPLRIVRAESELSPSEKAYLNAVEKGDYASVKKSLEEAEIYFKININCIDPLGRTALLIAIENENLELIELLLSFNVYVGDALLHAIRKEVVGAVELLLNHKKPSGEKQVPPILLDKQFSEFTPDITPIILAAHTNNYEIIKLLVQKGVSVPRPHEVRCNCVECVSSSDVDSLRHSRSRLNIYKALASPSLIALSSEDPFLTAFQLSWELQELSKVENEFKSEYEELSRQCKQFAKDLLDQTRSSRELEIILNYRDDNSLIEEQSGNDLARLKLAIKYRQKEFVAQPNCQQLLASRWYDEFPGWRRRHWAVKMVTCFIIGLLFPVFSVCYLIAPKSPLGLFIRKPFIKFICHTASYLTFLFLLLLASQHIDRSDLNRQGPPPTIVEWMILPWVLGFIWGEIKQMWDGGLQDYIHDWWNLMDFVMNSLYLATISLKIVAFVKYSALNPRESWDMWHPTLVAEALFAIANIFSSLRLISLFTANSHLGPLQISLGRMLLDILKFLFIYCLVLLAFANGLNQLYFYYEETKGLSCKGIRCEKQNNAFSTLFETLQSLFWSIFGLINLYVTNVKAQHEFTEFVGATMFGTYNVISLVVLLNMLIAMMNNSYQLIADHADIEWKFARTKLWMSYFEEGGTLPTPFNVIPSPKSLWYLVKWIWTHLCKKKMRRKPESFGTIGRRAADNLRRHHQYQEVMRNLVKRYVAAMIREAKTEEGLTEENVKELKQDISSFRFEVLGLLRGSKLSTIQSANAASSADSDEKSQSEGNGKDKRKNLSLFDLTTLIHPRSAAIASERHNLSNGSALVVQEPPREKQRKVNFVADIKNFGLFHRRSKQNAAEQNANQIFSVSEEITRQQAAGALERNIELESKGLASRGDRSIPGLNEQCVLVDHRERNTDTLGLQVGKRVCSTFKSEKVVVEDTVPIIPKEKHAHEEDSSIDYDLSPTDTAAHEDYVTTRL

[2] = viability of uninfected HEp-2 cells – cell-based, HTS, cytotoxicity control for RSV inhibitor project, dose response (AID 2410); type: functional; conditions: human respiratory syncytial virus
[3] = target: T2, High affinity choline transporter 1 (Homo sapiens, UniProt Q9GZV3); test: human choline transporter blockers, potency – cell-based, 5-point CRC, membrane potential dye, dose response (AID 504840); type: functional
T2 sequence (Q9GZV3 whole entry): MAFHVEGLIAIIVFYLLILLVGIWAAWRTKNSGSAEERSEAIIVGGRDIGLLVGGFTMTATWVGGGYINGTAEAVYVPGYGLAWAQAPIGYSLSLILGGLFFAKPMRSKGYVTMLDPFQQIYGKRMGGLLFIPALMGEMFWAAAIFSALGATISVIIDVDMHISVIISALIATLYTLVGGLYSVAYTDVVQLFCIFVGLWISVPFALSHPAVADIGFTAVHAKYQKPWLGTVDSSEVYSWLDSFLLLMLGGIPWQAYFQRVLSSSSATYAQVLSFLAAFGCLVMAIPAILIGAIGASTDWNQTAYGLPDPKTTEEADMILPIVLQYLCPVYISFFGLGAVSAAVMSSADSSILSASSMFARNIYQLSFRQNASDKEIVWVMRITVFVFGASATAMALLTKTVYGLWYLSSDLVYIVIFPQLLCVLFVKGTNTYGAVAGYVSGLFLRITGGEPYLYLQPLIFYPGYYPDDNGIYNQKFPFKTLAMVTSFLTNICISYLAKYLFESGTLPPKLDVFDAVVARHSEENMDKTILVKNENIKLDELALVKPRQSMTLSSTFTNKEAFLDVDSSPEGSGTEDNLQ

[4] = target: T3, Type-1 angiotensin II receptor (Homo sapiens, UniProt P30556); test: antagonism of angiotensin II type 1 receptor – cell-based, uHTS hits, selectivity assay for APJ receptor antagonist project, dose response (AID 463214); type: functional;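 note: antagonist potency against angiotensin II stimulated AT1 response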
T3 sequence (P30556 whole entry): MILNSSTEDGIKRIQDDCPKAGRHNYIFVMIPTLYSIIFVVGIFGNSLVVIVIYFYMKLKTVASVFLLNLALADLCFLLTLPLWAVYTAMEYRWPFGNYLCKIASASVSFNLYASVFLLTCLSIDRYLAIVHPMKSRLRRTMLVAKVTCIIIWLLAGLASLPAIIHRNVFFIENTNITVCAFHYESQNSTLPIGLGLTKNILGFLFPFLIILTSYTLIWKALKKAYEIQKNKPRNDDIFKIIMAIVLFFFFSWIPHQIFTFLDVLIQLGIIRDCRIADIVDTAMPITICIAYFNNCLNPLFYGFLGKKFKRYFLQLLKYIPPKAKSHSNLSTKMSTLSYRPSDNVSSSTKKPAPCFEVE

[5] = NIH3T3 cell viability loss – ATP luminescence, mouse fibroblasts, counter-screen, dose response (AID 2010); type: functional, cell-based;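 note: cells exposed to compound for about 90 hours before reading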
[6] = microbe, parasite or virus in culture; type: functional; conditions: Mycobacterium tuberculosis
[7] = Trypanosoma cruzi growth suppression in host cells – NIH3T3 host cells, beta-gal luminescence, confirmation (AID 2044); type: functional, cell-based;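 note: intracellular parasites grown in NIH/3T3 mouse fibroblasts as host cells; luminescent beta-galactosidase reporter signal from transgenic T. cruzi replicating inside host cells; inhibitors lower the luminescence signal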
Beta-galactosidase = Beta-galactosidase (Escherichia coli, UniProt Q8VNN2); test: PubChem AID 485352; type: functional
Chain of Beta-galactosidase (Q8VNN2 whole entry): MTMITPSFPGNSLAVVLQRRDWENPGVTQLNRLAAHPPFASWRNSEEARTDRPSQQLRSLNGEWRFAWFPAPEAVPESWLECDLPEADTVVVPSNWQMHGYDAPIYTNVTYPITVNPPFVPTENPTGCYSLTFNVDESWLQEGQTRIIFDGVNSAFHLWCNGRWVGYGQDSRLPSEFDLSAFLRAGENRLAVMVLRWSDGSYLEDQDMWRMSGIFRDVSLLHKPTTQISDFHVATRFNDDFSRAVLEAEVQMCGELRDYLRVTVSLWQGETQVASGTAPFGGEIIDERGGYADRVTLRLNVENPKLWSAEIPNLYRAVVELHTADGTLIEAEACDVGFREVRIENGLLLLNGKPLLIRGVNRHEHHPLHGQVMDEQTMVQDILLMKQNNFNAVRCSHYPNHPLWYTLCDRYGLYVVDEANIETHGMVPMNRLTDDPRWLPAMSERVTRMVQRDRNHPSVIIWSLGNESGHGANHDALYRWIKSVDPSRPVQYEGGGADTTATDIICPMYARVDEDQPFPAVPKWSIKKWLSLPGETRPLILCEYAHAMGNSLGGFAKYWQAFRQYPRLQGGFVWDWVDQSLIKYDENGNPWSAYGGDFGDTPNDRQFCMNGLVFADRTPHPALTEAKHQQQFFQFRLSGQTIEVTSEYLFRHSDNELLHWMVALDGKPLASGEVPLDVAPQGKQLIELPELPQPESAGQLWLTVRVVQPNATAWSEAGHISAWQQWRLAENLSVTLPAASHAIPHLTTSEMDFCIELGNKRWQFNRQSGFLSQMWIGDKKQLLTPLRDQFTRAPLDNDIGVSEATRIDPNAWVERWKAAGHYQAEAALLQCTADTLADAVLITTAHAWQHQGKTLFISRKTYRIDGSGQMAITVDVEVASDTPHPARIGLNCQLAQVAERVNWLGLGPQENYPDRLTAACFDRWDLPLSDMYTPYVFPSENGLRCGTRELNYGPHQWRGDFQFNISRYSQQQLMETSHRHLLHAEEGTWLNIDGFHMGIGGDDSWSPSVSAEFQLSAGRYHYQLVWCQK

[8] = target: T4, Replicative DNA helicase DnaB (Mycobacterium tuberculosis, UniProt P9WMR3); test: DnaB intein splicing inhibitors, dose response, biochemical, cell-free fluorescence (AID 449749); type: functional
T4 sequence (P9WMR3 whole entry): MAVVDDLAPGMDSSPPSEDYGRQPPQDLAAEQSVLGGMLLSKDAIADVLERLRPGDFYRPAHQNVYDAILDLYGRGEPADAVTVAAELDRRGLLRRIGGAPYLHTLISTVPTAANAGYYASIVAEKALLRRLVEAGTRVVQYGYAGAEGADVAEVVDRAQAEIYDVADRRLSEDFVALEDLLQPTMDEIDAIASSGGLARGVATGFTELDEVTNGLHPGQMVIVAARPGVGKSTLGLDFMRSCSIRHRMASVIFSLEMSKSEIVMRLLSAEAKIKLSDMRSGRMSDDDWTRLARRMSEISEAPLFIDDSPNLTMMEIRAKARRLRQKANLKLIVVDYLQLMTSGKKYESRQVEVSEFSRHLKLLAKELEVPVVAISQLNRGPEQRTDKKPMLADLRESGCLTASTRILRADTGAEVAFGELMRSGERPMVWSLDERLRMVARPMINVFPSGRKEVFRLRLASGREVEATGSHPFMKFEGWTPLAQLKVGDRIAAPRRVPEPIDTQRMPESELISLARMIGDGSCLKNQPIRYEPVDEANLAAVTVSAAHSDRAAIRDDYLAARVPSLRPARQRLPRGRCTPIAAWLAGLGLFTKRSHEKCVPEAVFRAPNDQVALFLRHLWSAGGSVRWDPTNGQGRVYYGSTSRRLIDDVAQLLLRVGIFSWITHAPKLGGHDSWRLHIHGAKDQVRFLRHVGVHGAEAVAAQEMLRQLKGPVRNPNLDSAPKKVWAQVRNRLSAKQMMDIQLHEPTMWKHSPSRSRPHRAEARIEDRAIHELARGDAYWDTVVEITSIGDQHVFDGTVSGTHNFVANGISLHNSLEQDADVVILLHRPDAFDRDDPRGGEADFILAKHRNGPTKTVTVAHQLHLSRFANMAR

Protein RecA = target: T5, Protein RecA (Mycobacterium tuberculosis, UniProt P9WHJ3); test: Fluorescence Cell-Free Homogeneous Dose Retest to Identify Inhibitors of RecA-Intein Splicing Activity. [Related pubchem assays (depositor defined):AID2097, AID2223, AID489010, AID492950]; type: functional
T5 sequence (P9WHJ3 whole entry): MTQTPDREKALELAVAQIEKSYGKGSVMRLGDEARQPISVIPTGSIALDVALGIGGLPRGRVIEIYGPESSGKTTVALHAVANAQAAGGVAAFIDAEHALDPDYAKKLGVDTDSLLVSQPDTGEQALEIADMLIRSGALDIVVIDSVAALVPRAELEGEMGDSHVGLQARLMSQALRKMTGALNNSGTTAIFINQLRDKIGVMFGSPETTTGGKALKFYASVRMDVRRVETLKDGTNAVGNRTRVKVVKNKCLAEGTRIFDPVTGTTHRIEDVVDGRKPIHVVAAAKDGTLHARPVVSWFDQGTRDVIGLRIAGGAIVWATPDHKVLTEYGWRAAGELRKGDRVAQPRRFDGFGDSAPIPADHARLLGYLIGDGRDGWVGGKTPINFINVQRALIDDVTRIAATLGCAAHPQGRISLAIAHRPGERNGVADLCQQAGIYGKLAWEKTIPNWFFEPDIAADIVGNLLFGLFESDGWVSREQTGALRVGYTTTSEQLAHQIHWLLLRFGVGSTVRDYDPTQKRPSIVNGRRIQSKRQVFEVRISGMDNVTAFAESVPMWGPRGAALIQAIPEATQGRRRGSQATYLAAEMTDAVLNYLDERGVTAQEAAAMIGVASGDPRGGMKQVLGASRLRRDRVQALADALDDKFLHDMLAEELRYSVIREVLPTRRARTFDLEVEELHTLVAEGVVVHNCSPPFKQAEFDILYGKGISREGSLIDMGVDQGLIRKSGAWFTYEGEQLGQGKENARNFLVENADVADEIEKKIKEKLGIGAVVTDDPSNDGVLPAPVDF

Vero = test: cells; type: functional; conditions: Chlorocebus sabaeus
Streptokinase A = target: T6, Streptokinase A (Streptococcus pyogenes serotype M1, UniProt P10520); test: viability-normalized secreted streptokinase activity reduction – plasminogen activation absorbance, OD405, dose response (AID 1914); type: functional, Streptococcus pyogenes M1 GAS;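 note: secreted streptokinase activity via plasminogen activation per viability signal from cell pellet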
T6 sequence (P10520 whole entry): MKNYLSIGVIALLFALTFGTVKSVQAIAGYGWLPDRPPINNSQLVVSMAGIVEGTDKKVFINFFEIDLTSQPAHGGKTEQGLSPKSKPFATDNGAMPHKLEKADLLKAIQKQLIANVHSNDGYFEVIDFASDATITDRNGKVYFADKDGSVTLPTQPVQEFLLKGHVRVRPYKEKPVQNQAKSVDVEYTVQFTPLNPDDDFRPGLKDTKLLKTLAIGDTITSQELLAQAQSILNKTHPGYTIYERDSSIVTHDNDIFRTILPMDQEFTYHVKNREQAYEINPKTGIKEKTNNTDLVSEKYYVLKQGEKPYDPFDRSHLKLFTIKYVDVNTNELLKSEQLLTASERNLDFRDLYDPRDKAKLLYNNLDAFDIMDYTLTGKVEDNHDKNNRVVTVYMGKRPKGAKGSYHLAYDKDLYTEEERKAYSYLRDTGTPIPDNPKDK

Streptococcus = test: GAS UMAA2166 growth inhibition – luminescence, BacTiterGlo, counter-screen for streptokinase expression inhibitor project, dose response (AID 1915); type: functional, organism-based;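 note: potency for reduction of bacterial viability or growth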
[9] = tested on: Streptococcus sp. 'group A'; test: Streptococcus pyogenes SK(-)GAS viability under kanamycin – luminescence, BacTiterGlo, confirmation, counter-screen for streptokinase expression inhibitor project, dose response (AID 1900); type: functional, organism-based
[10] = target: T7, Heat shock factor protein 1 (Mus musculus, UniProt P38532); test: enhancement of HSF1-driven luciferase signal – cell-based, NIH3T3, luminescence, dose retest, confirmation (AID 435004); type: functional;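 note: stress induced by proteasome inhibitor MG132 added 30 min after compound; luciferase reporter driven by HSF1 response element in NIH3T3 cells; actives raise luminescence as potentiators of the MG132 stress response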
T7 sequence (P38532 whole entry): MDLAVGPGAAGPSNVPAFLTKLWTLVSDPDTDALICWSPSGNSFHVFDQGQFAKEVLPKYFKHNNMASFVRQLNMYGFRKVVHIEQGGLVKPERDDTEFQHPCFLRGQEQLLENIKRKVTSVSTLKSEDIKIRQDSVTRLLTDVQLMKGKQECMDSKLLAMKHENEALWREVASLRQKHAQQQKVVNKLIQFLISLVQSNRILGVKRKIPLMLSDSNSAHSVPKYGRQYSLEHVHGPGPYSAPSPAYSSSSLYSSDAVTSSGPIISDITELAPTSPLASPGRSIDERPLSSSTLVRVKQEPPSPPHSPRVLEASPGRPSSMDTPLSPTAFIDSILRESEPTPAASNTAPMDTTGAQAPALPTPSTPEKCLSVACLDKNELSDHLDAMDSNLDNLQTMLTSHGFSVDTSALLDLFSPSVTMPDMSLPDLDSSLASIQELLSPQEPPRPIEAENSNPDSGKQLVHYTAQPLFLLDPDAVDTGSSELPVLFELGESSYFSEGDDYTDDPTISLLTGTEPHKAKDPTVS

Nonstructural protein 1 = Nonstructural protein 1 (Influenza A virus, UniProt Q194T2); type: functional, Influenza A virus (A/California/07/2009(H1N1))
Chain of Nonstructural protein 1 (Q194T2 whole entry): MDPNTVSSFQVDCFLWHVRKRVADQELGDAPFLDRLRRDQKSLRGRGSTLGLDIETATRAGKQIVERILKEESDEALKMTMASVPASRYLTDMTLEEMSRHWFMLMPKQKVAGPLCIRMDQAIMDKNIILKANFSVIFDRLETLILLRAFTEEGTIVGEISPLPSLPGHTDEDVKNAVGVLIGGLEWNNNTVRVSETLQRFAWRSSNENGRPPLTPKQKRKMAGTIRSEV

SMILES: Cc1ccc(NC(=O)CNc2ccccc2CN(C)C2CCCCC2)cc1
- EC50 [1]: 2.99 µM (active)

SMILES: C=CCSc1nc2c(c(=O)[nH]c(=O)n2C)n1C/C=C(/C)Cl
- CC50 [2]: 37.2 µM (active)
- EC50 [1]: 2.37 µM (active)

SMILES: NS(=O)(=O)c1ccc(CCNCc2ccccc2OCc2ccc(Cl)cc2)cc1
- IC50 [3]: 11.2 µM (active)
- EC50 [1]: 6.68 µM (active)

SMILES: CN(C)C(CNC(=O)c1oc2ccccc2c1CSc1nc[nH]n1)c1ccco1 (configuration not stated)
- EC50 [1]: 8.41 µM (active)

SMILES: CCN(CC)S(=O)(=O)c1ccc2oc(SCC(=O)Nc3cc(C)on3)nc2c1
- IC50 [4]: > 40 µM (not active)
- EC50 [5]: 5.9 µM (active)
- CC50 [6]: 11.6 µM (active)
- EC50 [7]: > 30 µM (not active)
- EC50 (Beta-galactosidase): > 40 µM (inactive)

SMILES: Cn1cccc1/C=C(/C#N)C(N)=S
- IC50 [4]: > 40 µM (not active)
- EC50 (Beta-galactosidase): > 40 µM (inactive)

SMILES: CC(C)OC(=O)CN1C(=O)C(=O)c2ccccc21
- IC50 [4]: 5.32 µM (active)
- AC50 [8]: 14.3 µM (active)
- EC50 (Protein RecA): 8.52 µM (active)
- EC50 (Beta-galactosidase): > 40 µM (inactive)

SMILES: COc1ccc(OC)c(/C=C/c2ccc3cccc(O)c3n2)c1
- EC50 [5]: > 30 µM (not active)
- CC50 (Vero): 9.5 µM (active)
- EC50 (Streptokinase A): > 150 µM (not active)
- EC50 (Streptococcus): 10.7 µM (active)
- EC50 [9]: 0.323 µM (active)
- EC50 [7]: 2.07 µM (active)

SMILES: CCc1cc2c(=O)[nH]c(-c3ccccn3)nc2s1
- IC50 [4]: 2.91 µM (active)
- EC50 [10]: 12.9 µM (active)
- EC50 (Beta-galactosidase): > 40 µM (inactive)
- IC50 (Nonstructural protein 1): 14.3 µM (active)
